Experimental data taken from PubChem BioAssay AID1918936 (Molecular Pharmacology Branch, DTP, NCI, 2023).

Test system: 349418-098-R-PDC complex spheroid viability
Assay: Anticancer human tumor 349418-098-R-PDC patient-derived lung adenocarcinoma cell line growth inhibition
Conditions: for IC50: curve of first compound; for viability, T/C: stronger effect = lower value
In short: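 Multicellular complex spheroids of tumor cells with human endothelial cells (HUVEC) and mesenchymal stem cells; the LSD1 inhibitor iadademstat was combined with standard-of-care or investigational agents. Top concentration at or near clinical Cmax, half-log dilutions; final DMSO ≤0.25%.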

[1] = second compound 0.1 µM, first compound 0.0316 µM
[2] = second compound 0.1 µM, first compound 0.1 µM
[3] = second compound 0.316 µM, first compound 0.0316 µM
[4] = second compound 0.316 µM, first compound 0.1 µM
[5] = second compound 1 µM, first compound 0.0316 µM
[6] = second compound 1 µM, first compound 0.1 µM
[7] = second compound 3.16 µM, first compound 0.0316 µM
[8] = second compound 3.16 µM, first compound 0.1 µM
[9] = second compound 10 µM, first compound 0.0316 µM
[10] = second compound 10 µM, first compound 0.1 µM
[11] = second compound 0.1 µM, first compound 0.000949 µM
[12] = second compound 0.1 µM, first compound 0.003 µM
[13] = second compound 0.1 µM, first compound 0.00949 µM
[14] = second compound 0.1 µM, first compound 0.03 µM
[15] = second compound 0.1 µM, first compound 0.0949 µM
[16] = second compound 0.1 µM, first compound 0.3 µM
[17] = second compound 0.316 µM, first compound 0.000949 µM
[18] = second compound 0.316 µM, first compound 0.003 µM
[19] = second compound 0.316 µM, first compound 0.00949 µM
[20] = second compound 0.316 µM, first compound 0.03 µM
[21] = second compound 0.316 µM, first compound 0.0949 µM
[22] = second compound 0.316 µM, first compound 0.3 µM
[23] = second compound 1 µM, first compound 0.000949 µM
[24] = second compound 1 µM, first compound 0.003 µM
[25] = second compound 1 µM, first compound 0.00949 µM
[26] = second compound 1 µM, first compound 0.03 µM
[27] = second compound 1 µM, first compound 0.0949 µM
[28] = second compound 1 µM, first compound 0.3 µM
[29] = second compound 3.16 µM, first compound 0.000949 µM
[30] = second compound 3.16 µM, first compound 0.003 µM
[31] = second compound 3.16 µM, first compound 0.00949 µM
[32] = second compound 3.16 µM, first compound 0.03 µM
[33] = second compound 3.16 µM, first compound 0.0949 µM
[34] = second compound 3.16 µM, first compound 0.3 µM
[35] = second compound 10 µM, first compound 0.000949 µM
[36] = second compound 10 µM, first compound 0.003 µM
[37] = second compound 10 µM, first compound 0.00949 µM
[38] = second compound 10 µM, first compound 0.03 µM
[39] = second compound 10 µM, first compound 0.0949 µM
[40] = second compound 10 µM, first compound 0.3 µM
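Also: spheroids exposed to agents for seven days before readout.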
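For viability, T/C in this document: 100% = DMSO vehicle control wells.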

Structure (SMILES): CC[C@@]1(O)C(=O)OCc2c1cc1n(c2=O)Cc2cc3c(CN(C)C)c(O)ccc3nc2-1 + NC1CCC(NC2CC2c2ccccc2)CC1
- IC50 (second compound 0.1 µM): 0.00204 µM
- IC50 (second compound 0.316 µM): 0.00194 µM
- IC50 (second compound 1 µM): 0.00212 µM
- IC50 (second compound 3.16 µM): 0.00223 µM
- IC50 (second compound 10 µM): 0.00187 µM
- viability, T/C (second compound 0.1 µM, first compound 0.000316 µM): 98.8%
- viability, T/C (second compound 0.1 µM, first compound 0.001 µM): 86.5%
- viability, T/C (second compound 0.1 µM, first compound 0.00316 µM): 27.2%
- viability, T/C (second compound 0.1 µM, first compound 0.01 µM): 8.74%
- viability, T/C [1]: 4.98%
- viability, T/C [2]: 3.65%
- viability, T/C (second compound 0.316 µM, first compound 0.000316 µM): 113%
- viability, T/C (second compound 0.316 µM, first compound 0.001 µM): 78.6%
- viability, T/C (second compound 0.316 µM, first compound 0.00316 µM): 28.8%
- viability, T/C (second compound 0.316 µM, first compound 0.01 µM): 8.08%
- viability, T/C [3]: 5.09%
- viability, T/C [4]: 3.1%
- viability, T/C (second compound 1 µM, first compound 0.000316 µM): 98.9%
- viability, T/C (second compound 1 µM, first compound 0.001 µM): 84.8%
- viability, T/C (second compound 1 µM, first compound 0.00316 µM): 31.4%
- viability, T/C (second compound 1 µM, first compound 0.01 µM): 8.25%
- viability, T/C [5]: 5.11%
- viability, T/C [6]: 2.94%
- viability, T/C (second compound 3.16 µM, first compound 0.000316 µM): 91.6%
- viability, T/C (second compound 3.16 µM, first compound 0.001 µM): 83.5%
- viability, T/C (second compound 3.16 µM, first compound 0.00316 µM): 35.2%
- viability, T/C (second compound 3.16 µM, first compound 0.01 µM): 9.52%
- viability, T/C [7]: 5.25%
- viability, T/C [8]: 3.35%
- viability, T/C (second compound 10 µM, first compound 0.000316 µM): 95%
- viability, T/C (second compound 10 µM, first compound 0.001 µM): 71%
- viability, T/C (second compound 10 µM, first compound 0.00316 µM): 31.8%
- viability, T/C (second compound 10 µM, first compound 0.01 µM): 12%
- viability, T/C [9]: 4.67%
- viability, T/C [10]: 3.15%

Structure (SMILES): CCc1c2c(nc3ccc(O)cc13)-c1cc3c(c(=O)n1C2)COC(=O)[C@]3(O)CC + NC1CCC(NC2CC2c2ccccc2)CC1
- IC50 (second compound 0.1 µM): < 0.000949 µM
- IC50 (second compound 0.316 µM): < 0.000949 µM
- IC50 (second compound 1 µM): < 0.000949 µM
- IC50 (second compound 3.16 µM): < 0.000949 µM
- IC50 (second compound 10 µM): < 0.000949 µM
- viability, T/C [11]: 4.09%
- viability, T/C [12]: 2.43%
- viability, T/C [13]: 2.12%
- viability, T/C [14]: 1.2%
- viability, T/C [15]: 1.37%
- viability, T/C [16]: 1.52%
- viability, T/C [17]: 3.85%
- viability, T/C [18]: 2.61%
- viability, T/C [19]: 2.07%
- viability, T/C [20]: 1.29%
- viability, T/C [21]: 1.05%
- viability, T/C [22]: 1.44%
- viability, T/C [23]: 4.08%
- viability, T/C [24]: 2.65%
- viability, T/C [25]: 1.89%
- viability, T/C [26]: 1.41%
- viability, T/C [27]: 1.14%
- viability, T/C [28]: 1.59%
- viability, T/C [29]: 3.68%
- viability, T/C [30]: 2.54%
- viability, T/C [31]: 1.99%
- viability, T/C [32]: 1.37%
- viability, T/C [33]: 1.05%
- viability, T/C [34]: 1.61%
- viability, T/C [35]: 3.85%
- viability, T/C [36]: 2.63%
- viability, T/C [37]: 2.13%
- viability, T/C [38]: 1.59%
- viability, T/C [39]: 1.21%
- viability, T/C [40]: 1.47%

Structure (SMILES): Nc1ccccc1NC(=O)c1ccc(CNC(=O)OCc2cccnc2)cc1 + NC1CCC(NC2CC2c2ccccc2)CC1
- IC50 (second compound 0.1 µM): 0.244 µM
- IC50 (second compound 0.316 µM): 0.279 µM
- IC50 (second compound 1 µM): 0.224 µM
- IC50 (second compound 3.16 µM): 0.314 µM
- IC50 (second compound 10 µM): 0.269 µM
- viability, T/C [13]: 106%
- viability, T/C [14]: 88.6%
- viability, T/C [15]: 76.2%
- viability, T/C [16]: 46.2%
- viability, T/C (second compound 0.1 µM, first compound 0.949 µM): 15.4%
- viability, T/C (second compound 0.1 µM, first compound 3 µM): 5.1%
- viability, T/C [19]: 102%
- viability, T/C [20]: 97.3%
- viability, T/C [21]: 81.8%
- viability, T/C [22]: 48.9%
- viability, T/C (second compound 0.316 µM, first compound 0.949 µM): 15.4%
- viability, T/C (second compound 0.316 µM, first compound 3 µM): 5.32%
- viability, T/C [25]: 117%
- viability, T/C [26]: 85.9%
- viability, T/C [27]: 73.6%
- viability, T/C [28]: 46.3%
- viability, T/C (second compound 1 µM, first compound 0.949 µM): 15.9%
- viability, T/C (second compound 1 µM, first compound 3 µM): 5.11%
- viability, T/C [31]: 104%
- viability, T/C [32]: 85.8%
- viability, T/C [33]: 83.6%
- viability, T/C [34]: 53%
- viability, T/C (second compound 3.16 µM, first compound 0.949 µM): 15.6%
- viability, T/C (second compound 3.16 µM, first compound 3 µM): 5.33%
- viability, T/C [37]: 96.1%
- viability, T/C [38]: 91.1%
- viability, T/C [39]: 75.5%
- viability, T/C [40]: 50.2%
- viability, T/C (second compound 10 µM, first compound 0.949 µM): 12.7%
- viability, T/C (second compound 10 µM, first compound 3 µM): 4.33%

Structure (SMILES): Nc1ccn(C2OC(CO)C(O)C2(F)F)c(=O)n1 (stereo not given) + NC1CCC(NC2CC2c2ccccc2)CC1
- IC50 (second compound 0.1 µM): < 0.000949 µM
- IC50 (second compound 0.316 µM): < 0.000949 µM
- IC50 (second compound 1 µM): < 0.000949 µM
- IC50 (second compound 3.16 µM): < 0.000949 µM
- IC50 (second compound 10 µM): < 0.000949 µM
- viability, T/C [11]: 4.87%
- viability, T/C [12]: 4.56%
- viability, T/C [13]: 4.21%
- viability, T/C [14]: 3.79%
- viability, T/C [15]: 4%
- viability, T/C [16]: 3.98%
- viability, T/C [17]: 4.61%
- viability, T/C [18]: 4.85%
- viability, T/C [19]: 4.32%
- viability, T/C [20]: 4.15%
- viability, T/C [21]: 4.03%
- viability, T/C [22]: 3.47%
- viability, T/C [23]: 4.81%
- viability, T/C [24]: 4.98%
- viability, T/C [25]: 5.25%
- viability, T/C [26]: 4.25%
- viability, T/C [27]: 3.86%
- viability, T/C [28]: 3.77%
- viability, T/C [29]: 5.14%
- viability, T/C [30]: 4.79%
- viability, T/C [31]: 5.19%
- viability, T/C [32]: 4.55%
- viability, T/C [33]: 4.08%
- viability, T/C [34]: 3.79%
- viability, T/C [35]: 4.89%
- viability, T/C [36]: 5.31%
- viability, T/C [37]: 4.83%
- viability, T/C [38]: 4.8%
- viability, T/C [39]: 4.86%
- viability, T/C [40]: 3.79%

Structure (SMILES): O=C(c1cc(Cc2n[nH]c(=O)c3ccccc23)ccc1F)N1CCN(C(=O)C2CC2)CC1 + NC1CCC(NC2CC2c2ccccc2)CC1
- IC50 (second compound 0.1 µM): 4.25 µM
- IC50 (second compound 0.316 µM): 5.9 µM
- IC50 (second compound 1 µM): 4.18 µM
- IC50 (second compound 3.16 µM): 4.91 µM
- IC50 (second compound 10 µM): 2.52 µM
- viability, T/C [1]: 93.9%
- viability, T/C [2]: 88.8%
- viability, T/C (second compound 0.1 µM, first compound 0.316 µM): 82.6%
- viability, T/C (second compound 0.1 µM, first compound 1 µM): 77.8%
- viability, T/C (second compound 0.1 µM, first compound 3.16 µM): 51.7%
- viability, T/C (second compound 0.1 µM, first compound 10 µM): 40.6%
- viability, T/C [3]: 93.8%
- viability, T/C [4]: 87.3%
- viability, T/C (second compound 0.316 µM, first compound 0.316 µM): 82.4%
- viability, T/C (second compound 0.316 µM, first compound 1 µM): 77.2%
- viability, T/C (second compound 0.316 µM, first compound 3.16 µM): 59.5%
- viability, T/C (second compound 0.316 µM, first compound 10 µM): 41.1%
- viability, T/C [5]: 106%
- viability, T/C [6]: 98.1%
- viability, T/C (second compound 1 µM, first compound 0.316 µM): 79.4%
- viability, T/C (second compound 1 µM, first compound 1 µM): 75.4%
- viability, T/C (second compound 1 µM, first compound 3.16 µM): 62.2%
- viability, T/C (second compound 1 µM, first compound 10 µM): 28.9%
- viability, T/C [7]: 92.4%
- viability, T/C [8]: 89%
- viability, T/C (second compound 3.16 µM, first compound 0.316 µM): 87%
- viability, T/C (second compound 3.16 µM, first compound 1 µM): 69.6%
- viability, T/C (second compound 3.16 µM, first compound 3.16 µM): 64.6%
- viability, T/C (second compound 3.16 µM, first compound 10 µM): 32.4%
- viability, T/C [9]: 89.5%
- viability, T/C [10]: 68.7%
- viability, T/C (second compound 10 µM, first compound 0.316 µM): 64.8%
- viability, T/C (second compound 10 µM, first compound 1 µM): 62.4%
- viability, T/C (second compound 10 µM, first compound 3.16 µM): 48.7%
- viability, T/C (second compound 10 µM, first compound 10 µM): 38.2%
